Experimental data from US20260234150A1, “COMPOUND FOR INHIBITING NLRP3, PREPARATION METHOD, AND USE” (DOVETREE MEDICINES UNUS, INC., priority 2023, published 2026).

What follows are molecules tested against T1, His6-Flag-TEV-NLRP3 (134-1036) (Homo sapiens, UniProt Q96P20) (assay: NLRP3 fluorescence polarization (FP) binding assay, competition with probe NP3-301). Details: competition with NP3-301 for binding to NLRP3 (134-1036), 30 nM protein.
T1 construct: fused on or other part: N-terminal His6 tag, Flag tag and TEV cleavage site
T1 sequence (Q96P20 134-1036 limits assumed): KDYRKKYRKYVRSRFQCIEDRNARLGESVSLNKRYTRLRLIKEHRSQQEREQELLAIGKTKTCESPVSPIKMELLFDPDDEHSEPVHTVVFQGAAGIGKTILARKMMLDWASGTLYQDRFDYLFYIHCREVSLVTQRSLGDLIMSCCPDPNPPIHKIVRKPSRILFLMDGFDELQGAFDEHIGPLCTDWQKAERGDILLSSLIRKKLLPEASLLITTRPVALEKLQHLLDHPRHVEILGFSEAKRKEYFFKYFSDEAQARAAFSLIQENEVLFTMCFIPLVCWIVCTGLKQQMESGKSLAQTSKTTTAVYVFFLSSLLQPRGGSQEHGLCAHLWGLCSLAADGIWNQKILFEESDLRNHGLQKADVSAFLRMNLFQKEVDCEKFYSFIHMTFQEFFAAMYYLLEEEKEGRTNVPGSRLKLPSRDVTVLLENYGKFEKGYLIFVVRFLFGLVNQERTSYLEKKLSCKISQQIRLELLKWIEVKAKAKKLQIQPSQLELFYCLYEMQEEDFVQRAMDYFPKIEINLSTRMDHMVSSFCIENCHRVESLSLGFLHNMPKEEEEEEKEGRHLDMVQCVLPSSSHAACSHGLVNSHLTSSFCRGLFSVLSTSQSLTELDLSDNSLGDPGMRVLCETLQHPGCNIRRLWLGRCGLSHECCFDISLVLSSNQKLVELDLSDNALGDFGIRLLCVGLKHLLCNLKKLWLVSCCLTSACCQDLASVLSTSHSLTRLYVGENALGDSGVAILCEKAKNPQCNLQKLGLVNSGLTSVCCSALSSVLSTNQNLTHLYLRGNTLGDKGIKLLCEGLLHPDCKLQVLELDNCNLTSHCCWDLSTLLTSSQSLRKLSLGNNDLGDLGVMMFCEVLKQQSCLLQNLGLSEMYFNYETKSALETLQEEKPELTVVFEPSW
Description: This experiment uses fluorescence polarization technology to detect and evaluate the binding assay.
The fluorescent probe used in this assay is the compound NP3-301 in the Journal of Molecular Biology (2021) 433, 167309, which was synthesized with reference to this literature.
His6-Flag-TEV-NLRP3 (134-1036) protein (SEQ NO. 1) was purchased from Kaihuiruizhi Biotech (Shanghai) Co., Ltd. (ChemPartner), and was customed for expression.
Prepare 1× assay buffer: 50 mM Hepes, pH 7.4, 150 mM NaCl, 2.5 mM MgCl2, 0.005% Tween-20, 1 mM TCEP, 100 μM ATP.
First, 2.5 μL of 4× compound solution was added to a black shallow 384-well plate (Greiner, 784076), the shallow well plate was sealed, and centrifuged at 1000 rpm for 1 min; then 2× NLPR3 protein solution (final concentration of 30 nM) was added, the shallow well plate was sealed, centrifuged at 1000 rpm for 1 min, and incubated at room temperature for 60 min. Finally, 2.5 μL of 4× NP3-301 (final concentration of 0.5 nM) was added, the shallow well plate was sealed, centrifuged at 1000 rpm for 1 min, and incubated at room temperature for 30 min. Envision was used to read the fluorescence polarization values of λex=485+20 nm and kem=535+25 nm. GraphPad Prism 9.5.0 was used to analyze the data, and the IC50 value of the competition between the compound and NP3-301 for binding to His6-Flag-TEV-NLRP3 (134-1036) was fitted by four-parameter logistic. The compounds of the present disclosure have good NLRP3 binding activity, and the test results of some representative compounds are shown in Table 1.
Work on [2H]C([2H])([2H])C(=O)N1CCOC[C@H]1CNc1nc2nc(-c3c(C)cc(C(F)(F)F)cc3O)ccc2o1 [Compound 450] yielded an IC50 of at most 100 nM.
Work on CC(=O)N1CCC[C@@H](Nc2nc3nc(-c4c(C)cc(C(F)(F)F)cc4O)ncc3[nH]2)C1 [Compound 461] yielded an IC50 of 100 to 500 nM.
Work on Cc1cc(C(F)(F)F)cc(O)c1-c1cc2ccn(C3CCS(=O)(=O)C3)c2nn1 (centres unmarked) [Compound 123] yielded an IC50 of 500 to 1000 nM.
Work on Cc1cc(C(F)(F)F)cc(O)c1-c1ccc2oc(NC3CCN(S(C)(=O)=O)CC3)nc2n1 [Compound 411] yielded an IC50 of 100 to 500 nM.
Cc1cc(Cl)cc(O)c1-c1ccc2nc(N3CCOCC3)nn2n1 [Compound 420] showed an IC50 of at most 100 nM.
Molecule CC(=O)N1CC[C@H](Nc2nc3nc(-c4c(C)cc(C(F)(F)F)cc4O)ccc3o2)C1 [Compound 273] has an IC50 of 100 to 500 nM.
Molecule Cc1cc(C(F)(F)F)cc(O)c1-c1ccc2oc(NC[C@@H]3COCCN3S(C)(=O)=O)nc2n1 [Compound 258] has an IC50 of at most 100 nM.
Cc1cc(C(F)(F)F)cc(O)c1-c1cc2ccn(Cc3cc(C#N)ccn3)c2nn1 [Compound 121] showed an IC50 of over 1000 nM.
Molecule Cc1cc(C(F)(F)F)cc(O)c1-c1ccc2oc(N3CCO[C@@H](C)C3)nc2n1 [Compound 372] has an IC50 of at most 100 nM.
In the case of CCS(=O)(=O)N1CCN(c2nc3nc(-c4c(C)cc(C)cc4O)ccc3o2)CC1 [Compound 391], the IC50 is reported as at most 100 nM.
With Cc1cc(C(F)(F)F)cc(O)c1-c1ccc2nc(NC[C@@H]3COCCN3S(C)(=O)=O)nn2n1 [Compound 421] the IC50 was 500 to 1000 nM.
CC(=O)N1CCN(c2nc3nc(-c4c(C)cc(C(F)(F)F)cc4O)ccc3o2)CC1 [Compound 389] was tested, and the IC50 was at most 100 nM.
With Cc1cc(C(F)(F)F)cc(O)c1-c1ccc2oc(N3C[C@H]4C[C@@H]3CO4)nc2n1 [Compound 379] the IC50 was 100 to 500 nM.
With CC(=O)N1CCC[C@@H](Nc2nc3nc(-c4c(C)cc(C(F)(F)F)cc4O)ccc3o2)C1 [Compound 407] the IC50 was at most 100 nM.
Work on Cc1cc(C(F)(F)F)cc(O)c1-c1ccc2oc(N3CCC4(CC3)COC4)nc2n1 [Compound 362] yielded an IC50 of at most 100 nM.
Cc1cc(C(F)(F)F)cc(O)c1-c1ccc2oc(N3CCO[C@H](C)C3)nc2n1 [Compound 374] showed an IC50 of at most 100 nM.
Cc1cc(C(F)(F)F)cc(O)c1-c1ccc2oc(N3CCCOCC3)nc2n1 [Compound 377] was tested, and the IC50 was at most 100 nM.
Work on CC(=O)N1CC[C@@H](CNc2nc3nc(-c4c(C)cc(C(F)(F)F)cc4O)ccc3o2)C1 [Compound 271] yielded an IC50 of 100 to 500 nM.
With CC(=O)N1CCOC[C@H]1CNc1nc2c(C)cc(-c3c(C)cc(C(F)(F)F)cc3O)nn2n1 [Compound 425] the IC50 was 100 to 500 nM.
CC(=O)N1C[C@@H]2CN(c3nc4nc(-c5c(C)cc(C(F)(F)F)cc5O)ccc4o3)C[C@@H]2C1 [Compound 360] was tested, and the IC50 was at most 100 nM.
CC(=O)N1C[C@@H](O)[C@H](Nc2nc3nc(-c4c(C)cc(C(F)(F)F)cc4O)ccc3o2)C1 [Compound 272] gave an IC50 of at most 100 nM.
Cc1cc(C(F)(F)F)cc(O)c1-c1ccc2oc(N3CCN(C)C3=O)nc2n1 [Compound 396] was tested, and the IC50 was at most 100 nM.
Cc1cc(C(F)(F)F)cc(O)c1-c1ccc2oc(N3CCOC[C@@H]3C)nc2n1 [Compound 373] gave an IC50 of 100 to 500 nM.
Molecule Cc1cc(C(F)(F)F)cc(O)c1-c1ccc2oc(N[C@@H]3CCCN(C(=O)C4CC4)C3)nc2n1 [Compound 405] has an IC50 of at most 100 nM.
With Cc1cc(C(F)(F)F)cc(O)c1-c1ccc2oc(N3CCC4(CCCCO4)CC3)nc2n1 [Compound 368] the IC50 was at most 100 nM.
Molecule Cc1cc(C(F)(F)F)cc(O)c1-c1ccc2[nH]c(CC(=O)O)nc2n1 [Compound 4] has an IC50 of 500 to 1000 nM.
Cc1cc(C)c(-c2ccc3oc(N4CCS(=O)(=O)CC4)nc3n2)c(O)c1 [Compound 385] gave an IC50 of 100 to 500 nM.
In the case of Cc1cc(C(F)(F)F)cc(O)c1-c1ccc2cc(N3CCOC[C@H]3C)nn2n1 [Compound 438], the IC50 is reported as at most 100 nM.
Cc1cc(-c2ccc(C(F)(F)F)cc2O)nc2nc(N3CCOCC3)nn12 [Compound 458] gave an IC50 of at most 100 nM.
Cc1cc(C(F)(F)F)cc(O)c1-c1ccc2oc(N3CC4CC(C3)N4S(C)(=O)=O)nc2n1 [Compound 395] gave an IC50 of at most 100 nM.
For Cc1cc(C(F)(F)F)cc(O)c1-c1ccc2oc(N[C@@H]3CCCN(C4COC4)C3)nc2n1 [Compound 401], the IC50 was at most 100 nM.
Molecule Cc1cc(C(F)(F)F)cc(O)c1-c1ccn2nc(N[C@@H]3CCCN(CCO)C3)nc2n1 [Compound 455] has an IC50 of at most 100 nM.
Cc1cc(C(F)(F)F)cc(O)c1-c1cc2ccn(C3CS(=O)(=O)C3)c2nn1 [Compound 125] gave an IC50 of 100 to 500 nM.
Molecule Cc1cc(C)c(-c2ccc3oc(N4CCOCC4)nc3n2)c(O)c1 [Compound 375] has an IC50 of at most 100 nM.
For Cc1cc(C(F)(F)F)cc(O)c1-c1ccc2oc(N[C@@H]3CCCN(CC(C)(C)O)C3)nc2n1 [Compound 403], the IC50 was at most 100 nM.
Molecule COc1cc(C)c(-c2ccc3oc(NC[C@@H]4COCCN4C(C)=O)nc3n2)c(O)c1 [Compound 255] has an IC50 of 500 to 1000 nM.
Work on CC(=O)N1CCOC[C@H]1CNc1nc2nc(-c3c(C)cc(C(F)(F)F)cc3O)cc(C)n2n1 [Compound 457] yielded an IC50 of 100 to 500 nM.
CC(=O)N1CCOC[C@H]1CNc1nc2nc(-c3c(C)cc(Cl)cc3O)cc(C)c2o1 [Compound 452] showed an IC50 of at most 100 nM.
With Cc1cc(C(F)(F)F)cc(O)c1-c1ccc2nc(N[C@@H]3CCCN(CCO)C3)nn2n1 [Compound 454] the IC50 was at most 100 nM.
Cc1cc(C(F)(F)F)cc(O)c1-c1ccc2[nH]c(N)nc2n1 [Compound 1] showed an IC50 of 100 to 500 nM.
CCN1CCC2(CC1)CCN(c1nc3nc(-c4c(C)cc(C(F)(F)F)cc4O)ccc3o1)CC2 [Compound 367] gave an IC50 of 100 to 500 nM.
CC(=O)N1CCOC[C@H]1CNc1nc2ccc(-c3c(C)cc(C(F)(F)F)cc3O)nn2n1 [Compound 419] showed an IC50 of 100 to 500 nM.
In the case of Cc1cc(C(F)(F)F)cc(O)c1-c1ccc2oc(N3CCS(=O)(=O)c4ccccc43)nc2n1 [Compound 386], the IC50 is reported as at most 100 nM.
For CCN1CC2(CCN(c3nc4nc(-c5c(C)cc(C(F)(F)F)cc5O)ccc4o3)CC2)C1 [Compound 358], the IC50 was 100 to 500 nM.
CCS(=O)(=O)N1CCN(c2nc3nc(-c4c(C)cc(C(F)(F)F)cc4O)ccc3o2)[C@@H](C)C1 [Compound 393] gave an IC50 of 100 to 500 nM.
Cc1cc(C(F)(F)F)cc(O)c1-c1ccc2oc(N[C@@H]3CCCN(S(=O)(=O)C4CC4)C3)nc2n1 [Compound 406] was tested, and the IC50 was at most 100 nM.
Cc1cc(C(F)(F)F)cc(O)c1-c1ccc2oc(N3C[C@@H]4C[C@H]3CO4)nc2n1 [Compound 380] showed an IC50 of 100 to 500 nM.
Molecule CC(=O)N1CCCC2(CCN(c3nc4nc(-c5c(C)cc(C(F)(F)F)cc5O)ccc4o3)CC2)C1 [Compound 370] has an IC50 of 500 to 1000 nM.
In the case of CC(=O)N1CCOC[C@H]1CNc1nc2nc(-c3c(C)cc(C(F)(F)F)cc3O)ccn2n1 [Compound 453], the IC50 is reported as 500 to 1000 nM.
Molecule Cc1cc(C(F)(F)F)cc(O)c1-c1ccc2ccc(N)nc2n1 [Compound 7] has an IC50 of 100 to 500 nM.
Molecule CC(=O)N1CCOC2(CCN(c3nc4nc(-c5c(C)cc(C(F)(F)F)cc5O)ccc4o3)CC2)C1 [Compound 369] has an IC50 of 100 to 500 nM.
CCN1C[C@H](Nc2nc3nc(-c4c(C)cc(C(F)(F)F)cc4O)ccc3o2)CC(F)(F)C1 [Compound 398] showed an IC50 of at most 100 nM.
Cc1cc(C(F)(F)F)cc(O)c1-c1ccc2oc(N3CC4(COC4)C3)nc2n1 [Compound 357] showed an IC50 of 100 to 500 nM.
Cc1cc(C(F)(F)F)cc(O)c1-c1ccc2oc(N3CCC4(CCO4)CC3)nc2n1 [Compound 363] was tested, and the IC50 was at most 100 nM.
CC(=O)N1CC2(CCN(c3nc4nc(-c5c(C)cc(C(F)(F)F)cc5O)ccc4o3)CC2)C1 [Compound 359] was tested, and the IC50 was at most 100 nM.
CC(=O)N1CCC(Nc2nc3nc(-c4c(C)cc(C(F)(F)F)cc4O)ccc3o2)CC1 [Compound 412] showed an IC50 of 100 to 500 nM.
Work on Cc1cc(C(F)(F)F)cc(O)c1-c1ccc2oc(N[C@@H]3CCCN(CC#N)C3)nc2n1 [Compound 402] yielded an IC50 of at most 100 nM.
Cc1cc(C(F)(F)F)cc(O)c1-c1cc2ccn(C3CCS(=O)(=O)CC3)c2nn1 [Compound 124] showed an IC50 of 100 to 500 nM.
Cc1cc(C(F)(F)F)cc(O)c1-c1ccc2oc(C3CCCNC3)nc2n1 (centres unmarked) [Compound 382] showed an IC50 of 100 to 500 nM.
For CC(=O)N1CCC2(CCN(c3nc4nc(-c5c(C)cc(C(F)(F)F)cc5O)ccc4o3)C2)C1 (centres unmarked) [Compound 364], the IC50 was at most 100 nM.
Cc1cc(C(F)(F)F)c(Cl)c(O)c1-c1ccn2nc(N3CCOCC3)nc2n1 [Compound 459] was tested, and the IC50 was over 1000 nM.
Molecule CC(=O)N1CCC2(CC1)CN(c1nc3nc(-c4c(C)cc(C(F)(F)F)cc4O)ccc3o1)CCO2 [Compound 365] has an IC50 of 100 to 500 nM.
For CCS(=O)(=O)N1CCOC[C@H]1CNc1nc2nc(-c3c(C)cc(C(F)(F)F)cc3O)ccc2o1 [Compound 259], the IC50 was at most 100 nM.
Cc1cc(C(F)(F)F)cc(O)c1-c1ccc2oc(NC3CC3)nc2n1 [Compound 82] showed an IC50 of at most 100 nM.
In the case of CCN1CCC[C@H](n2ccc3cc(-c4c(C)cc(C(F)(F)F)cc4O)nnc32)C1 [Compound 11-b], the IC50 is reported as 100 to 500 nM.
CC(=O)N1CCC2(CC1)CCN(c1nc3nc(-c4c(C)cc(C(F)(F)F)cc4O)ccc3o1)CC2 [Compound 366] showed an IC50 of 100 to 500 nM.
CC(=O)N1CCOC[C@H]1CNc1nc2nc(-c3c(C)cc(C)cc3O)ccc2o1 [Compound 254] gave an IC50 of 100 to 500 nM.
For Cc1cc(C(F)(F)F)cc(O)c1-c1ccc2oc(N3CCC4(CCOC4)C3)nc2n1 (centres unmarked) [Compound 361], the IC50 was 100 to 500 nM.
